The values that follow come from ChEMBL document CHEMBL3233002, “Discovery of potent Keap1-Nrf2 protein-protein interaction inhibitor based on molecular binding determinants analysis” (J Med Chem, 2014).

Data set [1] has as its target Kelch-like ECH-associated protein 1 (Homo sapiens) (UniProt Q14145). The data set can be described thus: Inhibition of Keap1-Nrf2 interaction in human HepG2-ARE-C8 cells assessed as activation of Nrf2-ARE luciferase activity at 80 uM after 12 hrs relative to control. The class given is cell-based.
Data set [2] has the same target. As to the kind of experiment: Inhibition of Keap1-Nrf2 interaction in human HepG2-ARE-C8 cells assessed as activation of Nrf2-ARE luciferase activity at 40 uM after 12 hrs relative to control. The class given is cell-based.
The target is the same in data set [3]. The data set can be described thus: Inhibition of Keap1-Nrf2 interaction in human HepG2-ARE-C8 cells assessed as activation of Nrf2-ARE luciferase activity at 20 uM after 12 hrs relative to control. The class given is cell-based.
A short description of data set [4]: Partition coefficient, log D of the compound at pH 7.4. Type of data set: physicochemical. The settings on record: octanol/water.
Another data set relates to HCT-116. As to the kind of experiment: Cytotoxicity against human HCT116 cells at 10 uM. The class given is cell-based. To be noted: hct-116, 10 µM.
Data set [5] can be described thus: Dissociation constant, pKa of the compound. The class given is physicochemical.

What is called logD is the decadic logarithm of the distribution of all forms, ionised or not, between an organic phase and buffer at a given pH. A higher logD goes with a more lipophilic compound. The pKa is the negative logarithm of the acid dissociation constant. High values mean a weaker acid or stronger base, low ones a stronger acid or weaker base.

Sequence of Kelch-like ECH-associated protein 1 (Homo sapiens) (Q14145 whole entry): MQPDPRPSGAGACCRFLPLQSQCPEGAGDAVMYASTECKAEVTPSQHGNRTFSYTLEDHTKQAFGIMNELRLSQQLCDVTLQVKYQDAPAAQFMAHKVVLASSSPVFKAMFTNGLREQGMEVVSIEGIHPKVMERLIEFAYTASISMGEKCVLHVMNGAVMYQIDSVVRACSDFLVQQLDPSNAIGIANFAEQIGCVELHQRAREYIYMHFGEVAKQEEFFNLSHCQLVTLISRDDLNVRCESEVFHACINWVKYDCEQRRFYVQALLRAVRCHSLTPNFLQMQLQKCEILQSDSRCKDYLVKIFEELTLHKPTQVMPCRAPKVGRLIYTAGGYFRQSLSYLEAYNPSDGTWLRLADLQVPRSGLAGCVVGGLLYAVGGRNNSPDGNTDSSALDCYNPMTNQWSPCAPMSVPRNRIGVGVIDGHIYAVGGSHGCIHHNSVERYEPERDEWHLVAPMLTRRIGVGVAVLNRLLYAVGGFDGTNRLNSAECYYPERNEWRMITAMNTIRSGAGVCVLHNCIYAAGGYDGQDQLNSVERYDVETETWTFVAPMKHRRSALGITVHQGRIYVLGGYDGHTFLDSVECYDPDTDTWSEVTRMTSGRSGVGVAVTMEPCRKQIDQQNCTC

Turning to `CC(C)(C)c1cc(O)ccc1O`, the fold change (FC) is 6.21 in data set [1], 3.81 in data set [2] and 2.22 in data set [3].

Consider `COc1ccc(S(=O)(=O)N(CC(=O)O)c2ccc(N(CC(=O)O)S(=O)(=O)c3ccc(OC)cc3)c3ccccc23)cc1`, for which, in data set [4], the logD is given as 1.71. Also, in the data set on HCT-116, the Activity result is recorded as “Non-toxic”. Besides, in data set [5], the pKa worked out at 4.62.

As for `C[S+]([O-])CCCCN=C=S` (configuration not stated), the fold change (FC) in data set [3] was determined as 18.1.
